Measured values as given in paper PMC2492869 (BMC Microbiology, 2008).

Each compound was assayed against T1, Brucella suis urease (ure-1 operon) (Brucella suis, UniProt Q8G2P8) (assay: biochemical).
T1 construct: gene ureC1
T1 sequence (Q8G2P8 whole entry, looked up): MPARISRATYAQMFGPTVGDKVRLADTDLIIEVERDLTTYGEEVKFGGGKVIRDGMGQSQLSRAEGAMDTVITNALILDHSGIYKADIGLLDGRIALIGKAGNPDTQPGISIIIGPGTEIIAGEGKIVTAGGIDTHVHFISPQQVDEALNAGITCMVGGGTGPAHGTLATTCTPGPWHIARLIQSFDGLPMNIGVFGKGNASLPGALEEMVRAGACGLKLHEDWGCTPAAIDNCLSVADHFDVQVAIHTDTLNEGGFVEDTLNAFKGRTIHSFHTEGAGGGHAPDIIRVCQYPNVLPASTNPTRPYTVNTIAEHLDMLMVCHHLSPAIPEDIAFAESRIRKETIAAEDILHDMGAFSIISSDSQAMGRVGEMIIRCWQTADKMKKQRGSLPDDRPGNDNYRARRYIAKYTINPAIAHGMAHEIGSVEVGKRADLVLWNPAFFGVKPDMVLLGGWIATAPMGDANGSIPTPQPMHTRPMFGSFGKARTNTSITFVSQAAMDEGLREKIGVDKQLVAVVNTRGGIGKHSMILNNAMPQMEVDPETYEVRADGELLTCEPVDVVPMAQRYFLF
Compound `CC(=O)NO` [acetohydroxamic acid] has a Ki of 770 ± 60 µM.
In the case of `NC(=O)NO` [hydroxyurea], the Ki is reported as 1040 ± 310 µM.
For `NC(N)=S` [thiourea], the Ki was 26100 ± 2300 µM.
